Here are results for 14 compounds from patent US9125913B2, “Bcl-2-selective apoptosis-inducing agents for the treatment of cancer and immune diseases” (AbbVie Inc., priority 2008, dated 2015).

This test concerns GST-Bcl-2. As to the kind of experiment: TR-FRET binding assay, Bcl-2. The note with it: TR-FRET Ki values. The procedure, abridged: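 Ki values come from Wang's competitive-binding equation applied to TR-FRET signal (excitation 340/35 nm; emission 520/525 nm F-Bak peptide, 495/510 nm Tb antibody). Protein, probe and antibody incubated with compound 3 h at room temperature; dilution series began at 50 μM as 2× stock in 10% DMSO.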
In general terms: TR-FRET usually uses a lanthanide donor and a delayed reading to cut background.
`CC1(C)CCC(CN2CCN(c3ccc(C(=O)NS(=O)(=O)c4ccc(OCCC5CCOCC5)c([N+](=O)[O-])c4)c(Oc4cccc5[nH]ccc45)c3)CC2)=C(c2ccc(Cl)cc2)C1` [EXAMPLE 314, 4-(4-{[2-(4-chlorophenyl)-4,4-dimethylcyclohex-1-en-1-yl]methyl}piperazin-1-yl)-2-(1H-indol-4-yloxy)-N-{[3-nitro-4-(2-tetrahydro-2H-pyran-4-ylethoxy)phenyl]sulfonyl}benzamide]: the “Binding selectivity ratio (Bcl-XL Ki/Bcl-2 Ki)” value (“Binding selectivity ratio” below) is reported as over 215.3. In the case of `CC1(C)CCC(CN2CCN(c3ccc(C(=O)NS(=O)(=O)c4cnc(NCC5CCOCC5)c(C#N)c4)c(Oc4ccc5[nH]ccc5c4)c3)CC2)=C(c2ccc(Cl)cc2)C1` [EXAMPLE 352, 4-(4-{[2-(4-chlorophenyl)-4,4-dimethylcyclohex-1-en-1-yl]methyl}piperazin-1-yl)-N-({5-cyano-6-[(tetrahydro-2H-pyran-4-ylmethyl)amino]pyridin-3-yl}sulfonyl)-2-(1H-indol-5-yloxy)benzamide], the “Binding selectivity ratio” value is listed as over 96.7.

Take `CN1CCN(CCNc2ccc(S(=O)(=O)NC(=O)c3ccc(N4CCN(CC5=C(c6ccc(Cl)cc6)CC(C)(C)CC5)CC4)cc3Oc3cccc4[nH]ccc34)cc2[N+](=O)[O-])CC1` [Example 101, 4-(4-{[2-(4-chlorophenyl)-4,4-dimethylcyclohex-1-en-1-yl]methyl}piperazin-1-yl)-2-(1H-indol-4-yloxy)-N-[(4-{[2-(4-methylpiperazin-1-yl)ethyl]amino}-3-nitrophenyl)sulfonyl]benzamide]: the “Binding selectivity ratio” value turned out to be 121.2. With `COCCNc1ccc(S(=O)(=O)NC(=O)c2ccc(N3CCN(CC4=C(c5ccc(Cl)cc5)CC(C)(C)CC4)CC3)cc2Oc2ccc3[nH]ccc3c2)cc1[N+](=O)[O-]` [Example 179, 4-(4-{[2-(4-chlorophenyl)-4,4-dimethylcyclohex-1-en-1-yl]methyl}piperazin-1-yl)-2-(1H-indol-5-yloxy)-N-({4-[(2-methoxyethyl)amino]-3-nitrophenyl}sulfonyl)benzamide] the figure was over 3642.4; with `COCCN1CCC(Nc2ccc(S(=O)(=O)NC(=O)c3ccc(N4CCN(CC5=C(c6ccc(Cl)cc6)CC(C)(C)CC5)CC4)cc3Oc3ccc4[nH]ccc4c3)cc2[N+](=O)[O-])CC1` [EXAMPLE 189, 4-(4-{[2-(4-chlorophenyl)-4,4-dimethylcyclohex-1-en-1-yl]methyl}piperazin-1-yl)-2-(1H-indol-5-yloxy)-N-[(4-{[1-(2-methoxyethyl)piperidin-4-yl]amino}-3-nitrophenyl)sulfonyl]benzamide], 358.6. With `CN(C)CC(=O)N1CCO[C@@H](COc2ncc(S(=O)(=O)NC(=O)c3ccc(N4CCN(CC5=C(c6ccc(Cl)cc6)CC(C)(C)CC5)CC4)cc3Oc3cccc4[nH]cnc34)cc2Cl)C1` [EXAMPLE 424, 2-(1H-benzimidazol-4-yloxy)-N-[(5-chloro-6-{[(2R)-4-(N,N-dimethylglycyl)morpholin-2-yl]methoxy}pyridin-3-yl)sulfonyl]-4-(4-{[2-(4-chlorophenyl)-4,4-dimethylcyclohex-1-en-1-yl]methyl}piperazin-1-yl)benzamide] the figure was 782.52; with `CN1CCC(Nc2ccc(S(=O)(=O)NC(=O)c3ccc(N4CCN(CC5=C(c6ccc(Cl)cc6)CC(C)(C)CC5)CC4)cc3Oc3cccc4[nH]cnc34)cc2[N+](=O)[O-])CC1` [EXAMPLE 418, 2-(1H-benzimidazol-4-yloxy)-4-(4-{[2-(4-chlorophenyl)-4,4-dimethylcyclohex-1-en-1-yl]methyl}piperazin-1-yl)-N-({4-[(1-methylpiperidin-4-yl)amino]-3-nitrophenyl}sulfonyl)benzamide], 404.7; with `O=C(NS(=O)(=O)c1ccc(NCCCN2CCCC2)c([N+](=O)[O-])c1)c1ccc(N2CCN(Cc3ccccc3-c3ccc(Cl)cc3)CC2)cc1Oc1ccccc1` [Example 91, 4-{4-[(4′-chloro-1,1′-biphenyl-2-yl)methyl]piperazin-1-yl}-N-({3-nitro-4-[(3-pyrrolidin-1-ylpropyl)amino]phenyl}sulfonyl)-2-phenoxybenzamide], 52.8. With `CC1(C)CCC(CN2CCN(c3ccc(C(=O)NS(=O)(=O)c4cnc(NC5CCN(C6CC6)CC5)c(Cl)c4)c(Oc4cccc5[nH]cnc45)c3)CC2)=C(c2ccc(Cl)cc2)C1` [EXAMPLE 449, 2-(1H-benzimidazol-4-yloxy)-N-({5-chloro-6-[(1-cyclopropylpiperidin-4-yl)amino]pyridin-3-yl}sulfonyl)-4-(4-{[2-(4-chlorophenyl)-4,4-dimethylcyclohex-1-en-1-yl]methyl}piperazin-1-yl)benzamide] the figure was 74.4. Take `CN1CCC(Nc2ccc(S(=O)(=O)NC(=O)c3ccc(N4CCN(CC5=C(c6ccc(Cl)cc6)CC(C)(C)CC5)CC4)cc3Nc3cccnc3)cc2[N+](=O)[O-])CC1` [EXAMPLE 396, 4-(4-{[2-(4-chlorophenyl)-4,4-dimethylcyclohex-1-en-1-yl]methyl}piperazin-1-yl)-N-({4-[(1-methylpiperidin-4-yl)amino]-3-nitrophenyl}sulfonyl)-2-(pyridin-3-ylamino)benzamide]: the “Binding selectivity ratio” value is reported as over 5706.

For `C#Cc1cc(S(=O)(=O)NC(=O)c2ccc(N3CCN(CC4=C(c5ccc(Cl)cc5)CC(C)(C)CC4)CC3)cc2Oc2cccc3[nH]ccc23)cnc1OCC1CCOCC1` [EXAMPLE 391, 4-(4-{[2-(4-chlorophenyl)-4,4-dimethylcyclohex-1-en-1-yl]methyl}piperazin-1-yl)-N-{[5-ethynyl-6-(tetrahydro-2H-pyran-4-ylmethoxy)pyridin-3-yl]sulfonyl}-2-(1H-indol-4-yloxy)benzamide], the “Binding selectivity ratio” value is recorded as over 186.4. For `O=C(NS(=O)(=O)c1ccc(NCC2CCOCC2)c([N+](=O)[O-])c1)c1ccc(N2CCN(Cc3cc(OCCN4CCOCC4)ccc3-c3ccc(Cl)cc3)CC2)cc1Oc1ccc2[nH]ccc2c1` [Example 127, 4-(4-{[4′-chloro-4-(2-morpholin-4-ylethoxy)-1,1′-biphenyl-2-yl]methyl}piperazin-1-yl)-2-(1H-indol-5-yloxy)-N-({3-nitro-4-[(tetrahydro-2H-pyran-4-ylmethyl)amino]phenyl}sulfonyl)benzamide], the “Binding selectivity ratio” value is over 1437.9. `O=C(NS(=O)(=O)c1ccc(NCC2CCOCC2)c([N+](=O)[O-])c1)c1ccc(N2CCN(Cc3ccccc3-c3ccc(Cl)cc3)CC2)cc1Oc1ccccc1` [Example 1, 4-{4-[(4′-chloro-1,1′-biphenyl-2-yl)methyl]piperazin-1-yl}-N-({3-nitro-4-[(tetrahydro-2H-pyran-4-ylmethyl)amino]phenyl}sulfonyl)-2-phenoxybenzamide]: the “Binding selectivity ratio” value was 85.4. With `O=C(NS(=O)(=O)c1ccc(NCCCN2CCOCC2)c([N+](=O)[O-])c1)c1ccc(N2CCN(Cc3ccccc3-c3ccc(Cl)cc3)CC2)cc1Oc1ccc2[nH]ccc2c1` [Example 59, 4-{4-[(4′-chloro-1,1′-biphenyl-2-yl)methyl]piperazin-1-yl}-2-(1H-indol-5-yloxy)-N-({4-[(3-morpholin-4-ylpropyl)amino]-3-nitrophenyl}sulfonyl)benzamide] the figure was 1867.6.
